Laboratory results taken from article PMC9468151, “Identification of a binding site on soluble RANKL that can be targeted to inhibit soluble RANK-RANKL interactions and treat osteoporosis” (Nature Communications, 2022).
“And” between values parts separate entries of the source, which are not always exact repeats. Equal entries are not always repeated.

Legend:
OVX rats = assay: Osteoporosis therapeutic study in OVX rats (micro-CT); assay type: in vivo, rat; set-up: Tb.N: unit not given beside the values; details: for BV/TV / Tb.N / Tb.Sp / Tb.Th: individual animals; for BV/TV of OVX rats: oral 10 mg/kg/day, 12 weeks, in words
Method: Female SD rats or C57BL/6 mice were cared until they grown up to 6 months old or 10 weeks old, respectively. Then we subjected them to either bilateral ovariectomy or sham operation after anesthesia with 10% chloral hydrate (0.3 mL/100 g). Then all the rats or mice were intramuscular injected of penicillin to prevent infection in the first week of surgery. For rat experiments, after 12 weeks of operation, 3 rats from sham-operated or ovariectomized groups were random selected to determine bone mass by micro-CT imaging biopsy to verify successful produced bone loss(data unshown). Then the OVX rats were individually administrated with S3-15, S3, and S3-05 orally with (10 mg/kg/day) for another 12 weeks. For mouse experiments, after 4 weeks of surgery, the OVX mice were treated with 10 mg/kg/day S3-15 for another 4 weeks.
The weight of rats or mice were recorded every week in the treatment period. After treatment, the rats were harvested, the serum, heart, liver, spleen, lung, kidney, thymus, and femurs were all collected and subjected to subsequent analysis. The right femurs of rats or mice were cleaned excess soft tissue, fixed in 10% formalin, and processed them for microcomputed tomography (micro-CT) analysis. Left mice femurs were collected and excarnate for biomechanical strength testing. Mice peripheral blood were as well as collected for flow cytometry analyzing.
The right femurs of rats or mice were further analyzed with micro-CT on Inveon PET/CT (Siemens, Germany). We used micro-CT to scan the femur from the femoral head to the femoral condyle, using 19 μm resolution, 80 kV 500uA, 360 projection, 3000-6000 image threshold, full rotation cone beam. Three-dimensional reconstruction and histomorphometric analyses of trabecular bone were conducted with the IAW (Inveon analysis workstation) analysis software. The trabecular extended 1 mm (rat) or 0.5 mm (mice) proximally to the end of the distal growth plate over 2 mm (rats) or 1 mm (mice) toward the diaphysis was selected as the region of interest (ROI) for the analysis. The resulting two-dimensional images of trabecular bone in relative cross sections were shown in grayscale. Trabecular bone parameters were measured including bone volume/tissue volume (BV/TV), bone surface area/bone volume (BS/BV), trabecular number (Tb.N), trabecular thickness (Tb.Th), trabecular separation(Tb.Sp) and trabecular pattern factor(Tb.P.F).

[1] = In vitro cytotoxicity assay (MTT); assay type: cell-based, mouse; details: mouse, RAW264.7 cells; for viability at 24 h, 0.08 μM: conc. 0.08 μM; for viability at 24 h, 0.08 μM / viability at 24 h, 0.28 μM / viability at 24 h, 0.92 μM / viability at 24 h, 3.03 μM / viability at 24 h, 10 μM: read-out: cell viability relative to 0 μM (fig. S5e); for viability at 24 h, 0.28 μM: conc. 0.28 μM; for viability at 24 h, 0.92 μM: conc. 0.92 μM; for viability at 24 h, 3.03 μM: conc. 3.03 μM; for viability at 24 h, 10 μM: conc. 10 μM; for CC50 at 24 h: RAW264.7, MTT
How it was run: (§1)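 Log-phase cells were seeded at 6 × 10^3 per well and incubated 24 h, with viability read by MTT. Growth inhibition (%) was calculated from OD relative to vehicle wells. CC50 came from nonlinear regression curve fitting.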

RAW264.7 cells = assay: In vitro cytotoxicity assay (MTT); assay type: cell-based, mouse
How it was run: as §1

[2] = Pharmacokinetic studies in rat; assay type: in vivo; set-up: plasma concentration-time (fig. S2c): unit not given here; details: for Cmax / half-life: Sprague-Dawley; for Cmax / half-life / plasma concentration-time (fig. S2c): rat; for Cmax / half-life / AUC: male SD rats, oral 10 mg/kg, plasma
Method: 28-week-old and 280 g∼370 g weight male SD (Sprague Dawley) rats were used for pharmacokinetic (PK) studies. Rats were weighed and divided into groups of 3 rats per group. Compounds S3, S3-05 and S3-15 were dissolved in deionized water and made the concentration to 1 mg/mL. Then rats were oral gavage administrated at the doses of 10 mg/kg for each compound. Blood samples were collected in tubes with heparin sodium at 5 min, 10 min, 20 min, 30 min, 40 min, 60 min, 2 h, 3 h, 4 h, 5.5 h, 7 h, 9 h, 12 h, 16 h, 24 h, 32 h, 40 h, 48 h, time points, with three […] per time point for each compound. Blood samples were centrifuged 2100 × g for 10 min at 4 °C, then the plasma was transferred to a clean microfuge tube. Plasma samples were stored at −80 °C. Additionally, ten rats were used as a control and not treated with compound. Plasma from control mice was used to calibrate LC-MS and correct for matrix effects. Drug concentration in plasma was quantified by LC-MS-based methods. Pharmacokinetic parameters were estimated using Phoenix WinNonlin (version 6.3) (Certara USA, Princeton, New Jersey) from mean plasma concentration-time profiles.

[3] = OVX rats, S3-15 oral 10 mg/kg/day 12 weeks, 10 mg/kg/day

Compound	BV/TV of OVX rats (OVX rats)	viability at 24 h, 0.08 μM [1]	viability at 24 h, 10 μM [1]	CC50 at 24 h [1]	cell viability relative to 0 μM (fig. S5e) (RAW264.7 cells; conc. 0.08 μM)	cell viability relative to 0 μM (fig. S5e) (RAW264.7 cells; conc. 0.28 μM)	cell viability relative to 0 μM (fig. S5e) (RAW264.7 cells; conc. 0.92 μM)	cell viability relative to 0 μM (fig. S5e) (RAW264.7 cells; conc. 3.03 μM)	cell viability relative to 0 μM (fig. S5e) (RAW264.7 cells; conc. 10 μM)	Cmax [2]	half-life [2]	AUC [2]	plasma concentration-time (fig. S2c) ([2]; time 0.083 h)	plasma concentration-time (fig. S2c) ([2]; time 0.167 h)	plasma concentration-time (fig. S2c) ([2]; time 0.333 h)	plasma concentration-time (fig. S2c) ([2]; time 0.5 h)	plasma concentration-time (fig. S2c) ([2]; time 0.667 h)	plasma concentration-time (fig. S2c) ([2]; time 1 h)	plasma concentration-time (fig. S2c) ([2]; time 2 h)	plasma concentration-time (fig. S2c) ([2]; time 3 h)	further results
CCOC(=O)c1sc(NC(=O)/C(=N/Nc2ccccc2C(=O)O)C(C)=O)nc1C [S3, (E)-2-(2-(1-((5-(ethoxycarbonyl)-4-methylthiazol-2-yl)amino)-1,3-dioxobutan-2-ylidene) hydrazinyl) benzoic acid]	increased	105%	120%	44.6 µM	118.628 and 117.348	120.489 and 117.697	125.722 and 127.234	128.164 and 131.886	130.258 and 129.909	1.43 ± 0.65 µg/mL	7.51 h	5.67± 3.48 hr*ug/m	1.351 and 0.4444 and 0.2871	2.528 and 0.9092 and 0.8091	3.09 and 1.211 and 2.048	3.054 and 1.206 and 2.481	2.576 and 1.333 and 1.703	1.712 and 1.674 and 1.242	1.693 and 1.071 and 0.7425	1.218 and 0.6709 and 0.4108	BV/TV (OVX rats; OVX + compound): 0.3479 and 0.4471 and 0.777 and 0.287 and 0.2327 and 0.4826 and 0.4913; Tb.N (OVX rats; OVX + compound): 0.07107 and 0.08431 and 0.1472 and 0.07083 and 0.06968 and 0.09727 and 0.1011; Tb.Sp (OVX rats; OVX + compound): 0.1332 and 0.1043 (2×) and 0.04227 and 0.1759 and 0.2298 and 0.1047; Tb.Th (OVX rats; OVX + compound): 4.895 and 5.303 and 5.277 and 4.053 and 3.339 and 4.961 and 4.861; viability at 24 h, 0.28 μM [1]: 107%; viability at 24 h, 0.92 μM [1]: 111%; viability at 24 h, 3.03 μM [1]: 121%; plasma concentration-time (fig. S2c) ([2]; time 4 h): 1.2291 and 0.8619 and 0.3316; plasma concentration-time (fig. S2c) ([2]; time 5.5 h): 0.4965 and 0.6324 and 0.178; plasma concentration-time (fig. S2c) ([2]; time 7 h): 0.6171 and 0.2252 and 0.1625; plasma concentration-time (fig. S2c) ([2]; time 9 h): 0.8173 and 0.544; plasma concentration-time (fig. S2c) ([2]; time 12 h): 0.5875 and 0.2812 and 0.1945; plasma concentration-time (fig. S2c) ([2]; time 16 h): 1.063 and 0.3858 and 0.544; plasma concentration-time (fig. S2c) ([2]; time 24 h): 1.148 and 0.1582 and 0.2706; plasma concentration-time (fig. S2c) ([2]; time 48 h): 0.06761 and 0.02244 and 0.00409
CCOC(=O)c1sc(NC(=O)/C(=N/Nc2ccc(O)cc2C(=O)O)C(C)=O)nc1C [S3-05]	increased	98.4%	113%	93.9 µM	112.115 and 113.045	104.323 and 119.674	131.188 and 122	125.024 and 127.118	125.722 and 115.72	0.06 ± 0.01 µg/mL	10.6 ± 2.31 h	0.38± 0.23 hr*ug/m	0.0241 and 0.0344 and 0.0141	0.091 and 0.0772 and 0.0497	0.07 and 0.0598 and 0.0834	0.063 and 0.055 and 0.0901	0.057 and 0.0597 and 0.0836	0.0458 and 0.0351 and 0.0779	0.0356 and 0.0153 and 0.0386	0.0376 and 0.0287 and 0.0316	BV/TV (OVX rats; OVX + compound): 0.3016 and 0.3941 and 0.3094 and 0.3401 and 0.3769 and 0.3486 and 0.3669 and 0.2495; Tb.N (OVX rats; OVX + compound): 0.07827 and 0.1011 and 0.07596 and 0.08201 and 0.08333 and 0.08879 and 0.08221 and 0.07582; Tb.Sp (OVX rats; OVX + compound): 0.1812 and 0.1554 and 0.1695 and 0.1592 and 0.1377 and 0.1659 and 0.1419 and 0.2281; Tb.Th (OVX rats; OVX + compound): 3.854 and 3.899 and 4.073 and 4.146 and 4.523 and 3.9259 and 4.463 and 3.291; viability at 24 h, 0.28 μM [1]: 118%; viability at 24 h, 0.92 μM [1]: 132%; viability at 24 h, 3.03 μM [1]: 127%; plasma concentration-time (fig. S2c) ([2]; time 4 h): 0.0238 and 0.027 and 0.0298; plasma concentration-time (fig. S2c) ([2]; time 5.5 h): 0.0163 and 0.0195 and 0.0418; plasma concentration-time (fig. S2c) ([2]; time 7 h): 0.0115 and 0.0105 and 0.0613; plasma concentration-time (fig. S2c) ([2]; time 9 h): 0.0058 and 0.0107 and 0.0452; plasma concentration-time (fig. S2c) ([2]; time 12 h): 0.0058 and 0.0222 and 0.0307; plasma concentration-time (fig. S2c) ([2]; time 16 h): 0.0077 and 0 and 0.0286; plasma concentration-time (fig. S2c) ([2]; time 24 h): 0.0024 and 0.0688 and 0.0143; plasma concentration-time (fig. S2c) ([2]; time 48 h): 0.0008 and 0.0021 and 0.0027
CC(=O)/C(=N\Nc1ccccc1C(=O)O)C(=O)Nc1ccccn1 [S3-15]	increased	107%	137%	62.5 µM	111.614 and 102.001	101.596 and 120.838 and 143.415	144.954 and 160.091 and 138.541	169.327 and 148.033 and 125.969	154.703 and 140.336	9.52 ± 0.92 µg/mL	15.5 h	113.59± 17.41 hr*ug/m	8.91 and 3.381 and 6.675	27.134 and 17.7488 and 10.2458	13.8156 and 22.2223 and 11.4529	17.5658 and 15.3508 and 13.9547	19.2235 and 12.2338 and 15.5001	10.8474 and 12.0395 and 10.786	16.2026 and 12.172 and 14.9878	10.9318 and 10.4453 and 9.091	BV/TV (OVX rats; OVX rats, S3-15 oral 10 mg/kg/day 12 weeks, distal femur, 10 mg/kg/day): 0.6788 and 0.422 and 0.4058 and 0.5401 and 0.3909 and 0.3235 and 0.4349 and 0.3705 and 0.4806; Tb.N (OVX rats; [3]): 6.402 1/mm and 4.855 1/mm and 5.594 1/mm and 4.923 1/mm and 3.924 1/mm and 4.525 1/mm and 4.231 1/mm and 4.365 1/mm and 4.683 1/mm; Tb.Sp (OVX rats; [3]): 0.05016 mm and 0.1191 mm and 0.1062 mm and 0.09343 mm and 0.1553 mm and 0.1495 mm and 0.1335 mm and 0.1442 mm and 0.1109 mm; Tb.Th (OVX rats; [3]): 0.05016 mm and 0.1191 mm and 0.1062 mm and 0.09343 mm and 0.1553 mm and 0.1495 mm and 0.1335 mm and 0.1442 mm and 0.1109 mm; oral availability ([2]; rat PK, in words): significant oral availability; plasma concentration-time (fig. S2c) ([2]; time 4 h): 11.3125 and 10.0653 and 13.8947; plasma concentration-time (fig. S2c) ([2]; time 5.5 h): 8.587 and 8.51 and 12.2576; plasma concentration-time (fig. S2c) ([2]; time 7 h): 16.4452 and 12.0395 and 11.7835; plasma concentration-time (fig. S2c) ([2]; time 9 h): 19.4794 and 12.2576 and 12.0395; plasma concentration-time (fig. S2c) ([2]; time 12 h): 5.907 and 4.021 and 6.547; plasma concentration-time (fig. S2c) ([2]; time 16 h): 1.447 and 2.372 and 1.915; plasma concentration-time (fig. S2c) ([2]; time 24 h): 0.5718 (2×) and 0.5604; plasma concentration-time (fig. S2c) ([2]; time 28 h): 0.2204 (2×) and 0.3334; plasma concentration-time (fig. S2c) ([2]; time 36 h): 0.2818 (2×) and 0.3414; plasma concentration-time (fig. S2c) ([2]; time 48 h): 0.1406 and 0.08379 and 0.1171
